Data: US8575165B2, “Methods for treating inflammatory disorders using 2,4-pyrimidinediamine compounds” (Rigel Pharmaceuticals, Inc., priority 2009, dated 2013)

What was measured:
IL-10 = assay: In vitro IL-10 assay: IL-10 ELISA of supernatant from IFNγ-primed THP-1 cells stimulated with SAC; assay type: cell-based, human; design: key: “+” indicates an increase in production; “−” indicates a decrease in production; conditions: effect on expression level of IL-10 in THP-1 cells primed with IFNγ and stimulated with 0.01% SAC; test compound 0.01 μM to 20 μM
Experimental: (§1) Exponentially growing THP-1 cells were plated (100K/well in 100 μL) in standard RPMI media (1% P/S+10% FBS) containing 50 ng/mL IFNγ (1000 U/mL) onto a white clear bottom 96 well plate and leave the cells in 37° C. incubator for 24 h.
(§2) After 24 h incubation, 100 μL of RPMI media containing 2× concentrated test compound per well was added to the above cell-culture media (final concentration of test compound was from 0.01 μM to 20 μM). The plates were pre-incubated for 1 h at 37° C. before being stimulated with SAC.
(§3) After 1 h compound pre-incubation, 10 μL per well of 20× concentrated SAC solution in RPMI media was added to give a final concentration of 0.01%, the plates were shaken and incubated at 37° C. for an additional 18 h.
(§4) 155 μL of the supernatant was harvested from each well and to the remaining 50 μL/well of the cell culture plate was added 50 μL of CELL TITER GLO® reagent. The plates were incubated for 1-2 minutes on a shaker and read for luminescence intensity to determine the compound cytotoxicity.
(§5) The cell culture supernatant collected above was used to carry out IL23 ELISA (65 μL-Supernatant) and IL10 ELISA (90 μL-Supernatant) as described below.
C. Human IL-10 ELISA Protocol (e-Biosciences)
Cell Culture Supernatant (90 μL from THP-1 cells primed with IFNγ (50 ng/mL-1000 U/mL) and stimulated with 0.01% SAC)
To 10.5 mL PBS was added 50 μL of anti-IL10 capture antibody (2.5 μg/mL), mixed well and 100 μL of the coating solution was added to each well of the 96 well white plates from Pierce. The plates were covered and incubated overnight at 4° C.
The anti-IL10 antibody-coated plates were washed 2× using TBST (use plate washer) and blocked the using 200 μL of 0.5% Casein for 1.5-2 h at RT with shaking.
The plates were washed 2× using TBST and the supernatant (100 μL/well) was transferred to the above pre-blocked/IL10-antibody-coated 96 well plate and incubated at RT for 1.5 h with shaking.
The plate was washed 4× using TBST (plate washer) and 100 μL/well detection antibody solution prepared from 2 μL of biotin labeled anti-IL-10 antibody in 11 mL 1% BSA/PBS solution (1-5000 dilution) was added. The plates were incubated for 1 hour with shaking at RT.
(§6) Again, the plate was washed 4× with TBST and 100 μL of HRP labeled Streptavidin (R&D Systems) solution (10 μL/10 mL 1% BSA solution) was added and incubated at RT for another 45 min with shaking.
After 45 min, the plate was washed with TBST 4× and 100 uL/well Super Signal ELISA Pico Chemiluminescent Substrate from Pierce (3.5 mL A+3.5 mL B+3.5 mL MQ water) was added, the plate was shaken for 1-2 minutes then read on a plate reader to quantify the amount of IL-10 secreted by the cells.

IL-23 = assay: In vitro IL-23 assay: IL-23 (p19/p40) ELISA of supernatant from IFNγ-primed THP-1 cells stimulated with SAC; assay type: cell-based, human; design: key: “+” indicates an increase in production; “−” indicates a decrease in production; conditions: effect on expression level of IL-23 in THP-1 cells primed with IFNγ and stimulated with 0.01% SAC; test compound 0.01 μM to 20 μM
Experimental: as §1, §2, §3, §4, §5
B. Human IL-23 (p19/p40) ELISA Protocol (e-Biosciences)
Cell Culture Supernatant (65 μL from THP-1 cells primed with IFNγ (50 ng/mL-1000 U/mL) and stimulated with 0.01% SAC)
To 10.5 mL PBS was added 50 μL of anti-IL23 (p19) capture antibody (2.5 μg/mL), mixed well and 100 μL of the coating solution was added to each well of the 96 well white plates from Pierce, cover and incubate overnight at 4° C.
The anti-IL23 (p19)-antibody-coated plates were washed 2× using TBST (use plate washer) and the plates were blocked using 200 μL of 0.5% Casein for 1.5-2 h at room temperature with shaking.
The plates were washed 2× using TBST and the supernatant (65 μL/well) was transferred to the above pre-blocked/IL23(p19)-antibody-coated 96 well plate and incubated at RT for 1.5 h with shaking.
The plate was washed 4× using TBST (plate washer) and 100 μL/well of detection antibody solution was added. The detection antibody solution was prepared from 2 μL of biotin labeled anti-IL-12 (p40/p70) antibody in 11 mL 1% BSA/PBS solution (1-5000 dilution). The plates were incubated for 1 hour with shaking at RT.
as §6
After 45 min, the plate was washed with TBST 4× and 100 μL/well Super Signal ELISA Pico Chemiluminescent Substrate from Pierce (3.5 mL A+3.5 mL B+3.5 mL MQ water) was added, the plate was shaken for 1-2 minutes then read on a plate reader to quantify the amount of IL-23 secreted by the cells.

Question: Which IL-10 (IL-10) does the source give for `CN1C(C)(C)CC(Nc2nc(Nc3ccc(N4CCN(S(C)(=O)=O)CC4)c(OC(F)F)c3)ncc2F)CC1(C)C` [Compound 13] here?
Answer: +

Question: With `CN1C(C)(C)CC(Nc2nc(Nc3ccc(S(=O)(=O)N4CCNCC4)c(Cl)c3)ncc2F)CC1(C)C` [Compound 9] as the compound, how does the IL-10 (IL-10) read?
Answer: +

Question: Which IL-23 (IL-23) does the source give for `CN1C(C)(C)CC(Nc2nc(Nc3ccc(N4CCN(S(C)(=O)=O)CC4)c(Cl)c3)ncc2C#N)CC1(C)C` [Compound 23] here?
Answer: −

Question: What about the IL-10 (IL-10) of the same compound?
Answer: +

Question: How did the IL-10 (IL-10) turn out when `CN1C(C)(C)CC(Nc2nc(Nc3ccc(N4CCN(S(C)(=O)=O)CC4)c(Cl)c3)ncc2[N+](=O)[O-])CC1(C)C` [Compound 21] was run?
Answer: +

Question: How did the IL-10 (IL-10) turn out when `CN1C(C)(C)CC(Nc2nc(Nc3ccc(N4CCN(S(C)(=O)=O)CC4)c(C#N)c3)ncc2F)CC1(C)C` [Compound 12] was run?
Answer: +

Question: Which results are given for `CN1C(C)(C)CC(Nc2nc(Nc3ccc(N4CCN(S(C)(=O)=O)CC4)c(C(F)(F)F)c3)ncc2F)C1(C)C` (centres unmarked) [Compound 3]?
Answer: IL-23 (IL-23): −; IL-10 (IL-10): +

Question: Which results are given for `CN1CCN(c2ccc(Nc3ncc(F)c(NC4CC(C)(C)N(C)C4(C)C)n3)cc2C(F)(F)F)CC1` (centres unmarked) [Compound 4]?
Answer: IL-23 (IL-23): −; IL-10 (IL-10): −

Question: For `CN1C(C)(C)CC(Nc2nc(Nc3ccc(N4CCN(S(C)(=O)=O)CC4)c(C(F)(F)F)c3)ncc2C#N)CC1(C)C` [Compound 22], which IL-10 (IL-10) is on record?
Answer: +

Question: For `CN1C(C)(C)CC(Nc2nc(Nc3ccc(N4CCN(S(C)(=O)=O)CC4)c(C(F)(F)F)c3)ncc2F)CC1(C)C` [Compound 1], which IL-23 (IL-23) is on record?
Answer: −

Question: What does the source list for `CN1CCN(c2ccc(Nc3ncc(F)c(NC4CC(C)(C)N(C)C(C)(C)C4)n3)cc2C(F)(F)F)CC1` [Compound 2]?
Answer: IL-23 (IL-23): −; IL-10 (IL-10): −

Question: With `CN1C(C)(C)CC(Nc2nc(Nc3ccc(N4CCN(S(C)(=O)=O)CC4)c(Cl)c3)ncc2C(F)(F)F)CC1(C)C` [Compound 26] as the compound, how does the IL-10 (IL-10) read?
Answer: +

Question: Which IL-10 (IL-10) does the source give for `CN1C(C)(C)CC(Nc2nc(Nc3ccc(N4CCN(S(=O)(=O)C5CC5)CC4)c(C(F)(F)F)c3)ncc2F)CC1(C)C` [Compound 11] here?
Answer: +

Question: Which IL-10 (IL-10) does the source give for `CN1C(C)(C)CC(Nc2nc(Nc3ccc(N4CCN(S(=O)(=O)C5CC5)CC4)c(Cl)c3)ncc2F)CC1(C)C` [Compound 15] here?
Answer: +

Question: Which IL-10 (IL-10) does the source give for `CN1C(C)(C)CC(Nc2nc(Nc3ccc(N4CCN(S(C)(=O)=O)CC4)c(C(F)(F)F)c3)ncc2[N+](=O)[O-])CC1(C)C` [Compound 20] here?
Answer: +

Question: Which IL-10 (IL-10) does the source give for `CN1CCN(c2ccc(Nc3ncc(F)c(NC4CC(C)(C)N(C)C(C)(C)C4)n3)cc2Cl)CC1` [Compound 6] here?
Answer: +

Question: Which results are given for `CCOC(=O)c1cnc(Nc2ccc(N3CCN(S(C)(=O)=O)CC3)c(Cl)c2)nc1NC1CC(C)(C)N(C)C(C)(C)C1` [Compound 19]?
Answer: IL-23 (IL-23): −; IL-10 (IL-10): +

Question: How did the IL-10 (IL-10) turn out when `CN1CCN(c2ccc(Nc3ncc(F)c(NC4CC(C)(C)N(C)C(C)(C)C4)n3)cc2Cl)CC1` [Compound 17] was run?
Answer: −

Question: Which IL-10 (IL-10) does the source give for `CN1C(C)(C)CC(Nc2nc(Nc3ccc(N4CCN(S(C)(=O)=O)CC4)c(C(F)(F)F)c3)ncc2F)CC1(C)C` [Compound 10] here?
Answer: +

Question: With `CN1C(C)(C)CC(Nc2nc(Nc3ccc(N4CCN(S(C)(=O)=O)CC4)c(C(F)(F)F)c3)ncc2C(F)(F)F)CC1(C)C` [Compound 25] as the compound, how does the IL-23 (IL-23) read?
Answer: −

Question: And the IL-10 (IL-10)?
Answer: +

Question: What does the source list for `CCOC(=O)c1cnc(Nc2ccc(N3CCN(S(C)(=O)=O)CC3)c(C(F)(F)F)c2)nc1NC1CC(C)(C)N(C)C(C)(C)C1` [Compound 18]?
Answer: IL-23 (IL-23): −; IL-10 (IL-10): +

Question: How did the IL-10 (IL-10) turn out when `CN1C(C)(C)CC(Nc2nc(Nc3ccc(N4CCN(S(C)(=O)=O)CC4)c(Cl)c3)ncc2F)CC1(C)C` [Compound 5] was run?
Answer: +

Question: Which results are given for `CN1C(C)(C)CC(CNc2nc(Nc3ccc(N4CCN(S(C)(=O)=O)CC4)c(C(F)(F)F)c3)ncc2F)C1(C)C` (centres unmarked) [Compound 7]?
Answer: IL-23 (IL-23): −; IL-10 (IL-10): +

Question: For `COc1ccc(Nc2ncc(F)c(NC3CC(C)(C)N(C)C(C)(C)C3)n2)cc1OC(F)F` [Compound 14], which IL-10 (IL-10) is on record?
Answer: +

Question: `CCN1C(=O)C(F)(F)Oc2cc(Nc3ncc(F)c(NC4CC(C)(C)N(C)C(C)(C)C4)n3)ccc21` [Compound 16] was tested. Which IL-10 (IL-10) did it give?
Answer: +

Question: For `CN1CCN(S(=O)(=O)c2ccc(Nc3ncc(F)c(NC4CC(C)(C)N(C)C(C)(C)C4)n3)cc2Cl)CC1` [Compound 8], which IL-23 (IL-23) is on record?
Answer: −

Question: And the IL-10 (IL-10)?
Answer: +

Question: `CN1C(C)(C)CC(Nc2nc(Nc3ccc(N4CCN(S(C)(=O)=O)CC4)c(C#N)c3)ncc2C#N)CC1(C)C` [Compound 24] was tested. Which IL-10 (IL-10) did it give?
Answer: +
